Consider 14 molecules from US20240409585A1, “MACROCYCLIC IMMUNOMODULATORS” (priority 2021, published 2024).

Numbered stars: 1 amine (or outer) side, 2 acyl side, 3 side chain; on linkers, the order of the positions; unused ones are H or OH. Bridge positions count the residues as written; N and C are the ends. Square brackets hold non-standard residues; d marks the D form. Peptide text beside a SMILES is read from it. * marks the point of attachment. ξ: configuration not given here. Bip(4'-NHAc) = CC(=O)Nc1ccc(-c2ccc(C[C@H](N)C(=O)O)cc2)cc1; Phe(4-COOH) = N[C@@H](Cc1ccc(C(=O)O)cc1)C(=O)O; X23 = O=C([C@H](Cc1cc2ccccc2cn1)N[*:1])[*:2]; Phe(4-CH2NH2) = NCc1ccc(C[C@H](N)C(=O)O)cc1; Bip = N[C@@H](Cc1ccc(-c2ccccc2)cc1)C(=O)O; Phe(3-Me) = Cc1cccc(C[C@H](N)C(=O)O)c1; 1Nal = N[C@@H](Cc1cccc2ccccc12)C(=O)O; 4Pal = N[C@@H](Cc1ccncc1)C(=O)O; Cha = N[C@@H](CC1CCCCC1)C(=O)O; Cit = NC(=O)NCCC[C@H](N)C(=O)O; Ile(3ξ) = CCC(C)[C@H](N)C(=O)O; Thr(3ξ) = CC(O)[C@H](N)C(=O)O; Pip = O=C(O)[C@@H]1CCCCN1; Carboxymethyl = O=C(O)C*; NMeA = CN[C@@H](C)C(=O)O; Orn = NCCC[C@H](N)C(=O)O; Dab = NCC[C@H](N)C(=O)O; Dap = NC[C@H](N)C(=O)O

By IC50 is commonly meant the concentration that gives 50% inhibition.

T1 sequence (Q15116 25-288): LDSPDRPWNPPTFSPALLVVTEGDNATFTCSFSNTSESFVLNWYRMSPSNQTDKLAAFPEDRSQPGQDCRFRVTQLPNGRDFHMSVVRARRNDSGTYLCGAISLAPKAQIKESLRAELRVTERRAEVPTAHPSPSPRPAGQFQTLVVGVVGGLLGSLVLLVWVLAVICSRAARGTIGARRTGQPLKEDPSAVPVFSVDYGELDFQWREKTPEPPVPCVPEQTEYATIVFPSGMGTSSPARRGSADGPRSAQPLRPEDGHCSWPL

The test addresses T1, PE-labeled human PD-L1-Ig binding to Jurkat cell line over-expressing human PD-1 (Jurkat-PD-1) (Homo sapiens, UniProt Q15116).
T1 construct: expressed in transfected cells; host or cells: Jurkat
As to the kind of experiment: Jurkat-PD-1 Cell Binding High-Content Screening Assay (CBA): Method 1. To be noted: Jurkat-hPD-1 cells, PE-labeled PD-L1-Ig 20 nM final; read-out: Jurkat HPDL1 PD1 IC50 (uM) (Method 1).
`Cc1cccc(C[C@@H]2NC(=O)[C@H](CC(=O)O)NC(=O)[C@H](Cc3ccc(OCC(=O)O)cc3)NC(=O)[C@H]([C@@H](C)O)NC(=O)CSC[C@@H](C(N)=O)NC(=O)[C@H](CC(N)=O)NC(=O)[C@H](C(C)C)NC(=O)[C@H](CC3CCCCC3)NC(=O)[C@H](CC(N)=O)NC(=O)[C@@H](CC(C)C)NC(=O)[C@H](C)N(C)C(=O)[C@H](Cc3ccc(OCC(=O)O)cc3)NC(=O)[C@H](Cc3ccc(-c4ccccc4)cc3)NC(=O)[C@H](Cc3ccc(OCC(=O)O)cc3)NC2=O)c1` [Compound 1675] ({CH2CO}-TY(Carboxymethyl)D[Phe(3-Me)]Y(Carboxymethyl)[Bip]Y(Carboxymethyl)[NMeA][dL]N[Cha]VNC-NH2; thioether N-14): the IC50 is 0.12 µM. The figure for `CC(C)C[C@@H]1NC(=O)[C@H](CCN)NC(=O)[C@@H](CC(C)C)NC(=O)[C@@H]2CCCCN2C(=O)[C@H](CCCNC(N)=O)NC(=O)[C@H](Cc2ccc(-c3ccccc3)cc2)NC(=O)[C@H](C(C)C)NC(=O)[C@H](Cc2c[nH]c3ccccc23)NC(=O)[C@H](CC(=O)O)NC(=O)[C@H](Cc2ccc(O)cc2)NC(=O)[C@H](CC(N)=O)NC(=O)CSC[C@@H](C(=O)N[C@@H](C)C(N)=O)NC(=O)[C@H]([C@@H](C)O)NC(=O)[C@H](C(C)C)NC1=O` [Compound 1382] ({CH2CO}-NYDWV[Bip][Cit][Pip][dL][Dab]LVTCA-NH2; thioether N-14) is 0.08 µM; for `Cc1cccc(C[C@@H]2NC(=O)[C@H](CC(=O)O)NC(=O)[C@H](Cc3ccc(OCC(=O)O)cc3)NC(=O)[C@H](Cc3ccncc3)NC(=O)CSC[C@@H](C(N)=O)NC(=O)[C@H](CC(N)=O)NC(=O)[C@H](C(C)C)NC(=O)[C@H](CC3CCCCC3)NC(=O)[C@H](CCN)NC(=O)[C@@H](CC(C)C)NC(=O)[C@H](C)N(C)C(=O)[C@H](Cc3ccc(OCC(=O)O)cc3)NC(=O)[C@H](Cc3ccc(-c4ccccc4)cc3)NC(=O)[C@H](Cc3ccc(OCC(=O)O)cc3)NC2=O)c1` [Compound 1663] ({CH2CO}-[4Pal]Y(Carboxymethyl)D[Phe(3-Me)]Y(Carboxymethyl)[Bip]Y(Carboxymethyl)[NMeA][dL][Dab][Cha]VNC-NH2; thioether N-14) it is 0.01 µM; for `CCC(C)[C@@H]1NC(=O)[C@H](Cc2ccc(-c3ccccc3)cc2)NC(=O)[C@H](C(C)C)NC(=O)[C@H](Cc2c[nH]c3ccccc23)NC(=O)[C@H](CC(=O)O)NC(=O)[C@H](Cc2ccc(O)cc2)NC(=O)[C@H](Cc2cc3ccccc3cn2)NC(=O)CSC[C@@H](C(=O)N[C@@H](C)C(N)=O)NC(=O)[C@H](C(C)O)NC(=O)[C@H](C(C)C)NC(=O)[C@H](CC2CCCCC2)NC(=O)[C@H](CCN)NC(=O)[C@@H](CC(C)C)NC(=O)[C@H](C)N(C)C1=O` (stereo partly drawn) [Compound 2044] ({CH2CO}-[X23]YDWV[Bip][Ile(3ξ)][NMeA][dL][Dab][Cha]V[Thr(3ξ)]CA-NH2; thioether N-14) it is 0.02 µM. The figure for `CCC(C)[C@@H]1NC(=O)[C@H](Cc2ccc(-c3ccccc3)cc2)NC(=O)[C@H](C(C)C)NC(=O)[C@H](Cc2c[nH]c3ccccc23)NC(=O)[C@H](CC(=O)O)NC(=O)[C@H](Cc2ccc(O)cc2)NC(=O)[C@H](Cc2ccc(CN)cc2)NC(=O)CSC[C@@H](C(=O)N[C@@H](C)C(N)=O)NC(=O)[C@H](C(C)O)NC(=O)[C@H](C(C)C)NC(=O)[C@H](CC2CCCCC2)NC(=O)[C@H](CCN)NC(=O)[C@@H](CC(C)C)NC(=O)[C@H](C)N(C)C1=O` (stereo partly drawn) [Compound 2062] ({CH2CO}-[Phe(4-CH2NH2)]YDWV[Bip][Ile(3ξ)][NMeA][dL][Dab][Cha]V[Thr(3ξ)]CA-NH2; thioether N-14) is 0.02 µM; for `CCC(C)[C@@H]1NC(=O)[C@H](Cc2ccc(-c3ccccc3)cc2)NC(=O)[C@H](CC(C)C)NC(=O)[C@H](Cc2c[nH]c3ccccc23)NC(=O)[C@H](CC(=O)O)NC(=O)[C@H](Cc2ccc(C(=O)O)cc2)NC(=O)[C@H](Cc2ccc(OCC(=O)O)cc2)NC(=O)CSC[C@@H](C(=O)N[C@@H](CC(N)=O)C(N)=O)NC(=O)[C@H](CCC(N)=O)NC(=O)[C@H](C(C)C)NC(=O)[C@H](CC2CCCCC2)NC(=O)[C@H](CCN)NC(=O)[C@@H](CC(C)C)NC(=O)[C@H](C)N(C)C1=O` (stereo partly drawn) [Compound 1925] ({CH2CO}-Y(Carboxymethyl)[Phe(4-COOH)]DWL[Bip][Ile(3ξ)][NMeA][dL][Dab][Cha]VQCN-NH2; thioether N-14) it is 0.03 µM; for `CCC(C)[C@@H]1NC(=O)[C@H](Cc2ccc(-c3ccccc3)cc2)NC(=O)[C@H](C(C)C)NC(=O)[C@H](Cc2c[nH]c3ccccc23)NC(=O)[C@H](CC(=O)O)NC(=O)[C@H](Cc2ccc(OCC(=O)O)cc2)NC(=O)[C@H](C(C)O)NC(=O)CSC[C@@H](C(N)=O)NC(=O)[C@H](CO)NC(=O)[C@H](C(C)C)NC(=O)[C@H](CC2CCCCC2)NC(=O)[C@H](CCN)NC(=O)[C@@H](CC(C)C)NC(=O)[C@H](C)N(C)C1=O` (stereo partly drawn) [Compound 2251] ({CH2CO}-[Thr(3ξ)]Y(Carboxymethyl)DWV[Bip][Ile(3ξ)][NMeA][dL][Dab][Cha]VSC-NH2; thioether N-14) it is 0.02 µM. As for `CC(C)C[C@@H]1NC(=O)[C@H](CCCN)NC(=O)[C@@H](CC(C)C)NC(=O)[C@H](C)N(C)C(=O)[C@H](CCCNC(=N)N)NC(=O)[C@H](Cc2ccc(-c3ccccc3)cc2)NC(=O)[C@H](C(C)C)NC(=O)[C@H](Cc2c[nH]c3ccccc23)NC(=O)[C@H](CC(=O)O)NC(=O)[C@H](Cc2ccc(O)cc2)NC(=O)[C@H](Cc2cnc[nH]2)NC(=O)CSC[C@@H](C(=O)N[C@@H](C)C(N)=O)NC(=O)[C@H]([C@@H](C)O)NC(=O)[C@H](C(C)C)NC1=O` [Compound 1144] ({CH2CO}-HYDWV[Bip]R[NMeA][dL][Orn]LVTCA-NH2; thioether N-14), the figure is 0.05 µM. Regarding `CC(C)C[C@@H]1NC(=O)[C@H](CCCNC(=N)N)NC(=O)[C@H](Cc2cccc3ccccc23)NC(=O)[C@H](C)N(C)C(=O)[C@H](CCCNC(=N)N)NC(=O)[C@H](Cc2ccc(-c3ccccc3)cc2)NC(=O)[C@H](C(C)C)NC(=O)[C@H](Cc2c[nH]c3ccccc23)NC(=O)[C@H](CC(=O)O)NC(=O)[C@H](Cc2ccc(O)cc2)NC(=O)[C@H](Cc2ccccc2)NC(=O)CSC[C@@H](C(=O)NCC(N)=O)NC(=O)[C@H](CO)NC(=O)[C@H](C(C)C)NC1=O` [Compound 1012] ({CH2CO}-FYDWV[Bip]R[NMeA][1Nal]RLVSCG-NH2; thioether N-14), the concentration for half-maximal inhibition (IC50) turned out to be 0.13 µM.

Consider `Cc1cccc(C[C@@H]2NC(=O)[C@H](CC(=O)O)NC(=O)[C@H](Cc3ccc(OCC(=O)O)cc3)NC(=O)[C@H]([C@@H](C)O)NC(=O)CSC[C@@H](C(N)=O)NC(=O)[C@H]([C@@H](C)O)NC(=O)[C@H](C(C)C)NC(=O)[C@H](CC3CCCCC3)NC(=O)[C@H](CC(N)=O)NC(=O)[C@@H](CC(C)C)NC(=O)[C@H](C)N(C)C(=O)[C@H](Cc3ccc(OCC(=O)O)cc3)NC(=O)[C@H](Cc3ccc(-c4ccccc4)cc3)NC(=O)[C@H](Cc3ccc(OCC(=O)O)cc3)NC2=O)c1` [Compound 1678] ({CH2CO}-TY(Carboxymethyl)D[Phe(3-Me)]Y(Carboxymethyl)[Bip]Y(Carboxymethyl)[NMeA][dL]N[Cha]VTC-NH2; thioether N-14), for which the concentration for half-maximal inhibition (IC50) amounted to 0.15 µM. The figure for `Cc1cccc(C[C@@H]2NC(=O)[C@H](CC(=O)O)NC(=O)[C@H](Cc3ccc(OCC(=O)O)cc3)NC(=O)[C@H](CN)NC(=O)CSC[C@@H](C(N)=O)NC(=O)[C@H](CCC(N)=O)NC(=O)[C@H](C(C)C)NC(=O)[C@H](CC3CCCCC3)NC(=O)[C@H](CCN)NC(=O)[C@@H](CC(C)C)NC(=O)[C@H](C)N(C)C(=O)[C@H](Cc3ccc(OCC(=O)O)cc3)NC(=O)[C@H](Cc3ccc(-c4ccccc4)cc3)NC(=O)[C@H](Cc3ccc(OCC(=O)O)cc3)NC2=O)c1` [Compound 1649] ({CH2CO}-[Dap]Y(Carboxymethyl)D[Phe(3-Me)]Y(Carboxymethyl)[Bip]Y(Carboxymethyl)[NMeA][dL][Dab][Cha]VQC-NH2; thioether N-14) is 0.1 µM; for `Cc1cccc(C[C@@H]2NC(=O)[C@H](CC(=O)O)NC(=O)[C@H](Cc3ccc(O)cc3)NC(=O)[C@H](CN)NC(=O)CSC[C@@H](C(=O)N[C@@H](C)C(N)=O)NC(=O)[C@H]([C@@H](C)O)NC(=O)[C@H](C(C)C)NC(=O)[C@H](CC(C)C)NC(=O)[C@H](CCN)NC(=O)[C@@H](CC(C)C)NC(=O)[C@H](C)N(C)C(=O)[C@H](C(C)C)NC(=O)[C@H](Cc3ccc(-c4ccccc4)cc3)NC(=O)[C@H](C(C)C)NC2=O)c1` [Compound 1428] ({CH2CO}-[Dap]YD[Phe(3-Me)]V[Bip]V[NMeA][dL][Dab]LVTCA-NH2; thioether N-14) it is 0.04 µM; for `CC(=O)Nc1ccc(-c2ccc(C[C@@H]3NC(=O)[C@H](C(C)C)NC(=O)[C@H](Cc4c[nH]c5ccccc45)NC(=O)[C@H](CC(=O)O)NC(=O)[C@H](Cc4ccc(O)cc4)NC(=O)[C@H](Cc4ccccc4)NC(=O)CSC[C@@H](C(=O)N[C@@H](C)C(N)=O)NC(=O)[C@H]([C@@H](C)O)NC(=O)[C@H](C(C)C)NC(=O)[C@H](CC(C)C)NC(=O)[C@H](CCCNC(=N)N)NC(=O)[C@@H](CC(C)C)NC(=O)[C@H](C)N(C)C(=O)[C@H](CCCNC(=N)N)NC3=O)cc2)cc1` [Compound 1067] ({CH2CO}-FYDWV[Bip(4'-NHAc)]R[NMeA][dL]RLVTCA-NH2; thioether N-14) it is 0.12 µM.

`CC(C)C[C@@H]1NC(=O)[C@H](Cc2c[nH]c3ccccc23)NC(=O)[C@H](CC(=O)O)NC(=O)[C@H](Cc2ccc(O)cc2)NC(=O)[C@H](Cc2ccccc2)NC(=O)CSC[C@@H](C(=O)N[C@@H](C)C(N)=O)NC(=O)[C@H](CO)NC(=O)[C@H](CN)NC(=O)[C@H](CC(C)C)NC(=O)[C@H](CC(N)=O)NC(=O)[C@@H](C)NC(=O)[C@H](C)N(C)C(=O)[C@H](C(C)C)NC(=O)[C@H](Cc2ccc(-c3ccccc3)cc2)NC1=O` [Compound 1532] ({CH2CO}-FYDWL[Bip]V[NMeA][dA]NL[Dap]SCA-NH2; thioether N-14): the IC50 was 0.17 µM.
